Ki data for one compound are collected here from BindingDB's records for doi:10.1016/0166-4328(96)00089-7 (Glaxo Research and Development, 1996).

Experiment [1] concerns the target 5-hydroxytryptamine receptor 4 (Cavia porcellus, UniProt O70528).
Experiment [2] deals with T1, 5-hydroxytryptamine receptor 2C (Sus scrofa, UniProt G7ZKZ7).
T1 sequence (G7ZKZ7 whole entry): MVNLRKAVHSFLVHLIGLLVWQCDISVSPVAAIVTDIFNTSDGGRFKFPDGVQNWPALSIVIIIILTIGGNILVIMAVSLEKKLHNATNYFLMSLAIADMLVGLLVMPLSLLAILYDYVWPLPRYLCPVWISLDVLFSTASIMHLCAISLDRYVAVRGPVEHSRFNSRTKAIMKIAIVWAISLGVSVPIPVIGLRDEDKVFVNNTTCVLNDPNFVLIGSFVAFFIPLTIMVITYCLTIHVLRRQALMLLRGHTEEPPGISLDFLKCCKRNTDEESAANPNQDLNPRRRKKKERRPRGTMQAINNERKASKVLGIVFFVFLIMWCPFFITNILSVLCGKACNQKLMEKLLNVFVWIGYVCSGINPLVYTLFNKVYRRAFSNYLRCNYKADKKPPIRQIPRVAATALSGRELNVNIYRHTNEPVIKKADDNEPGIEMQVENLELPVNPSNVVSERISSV

The target in experiment [3] is 5-hydroxytryptamine receptor 5A (Homo sapiens, UniProt P47898).
For experiment [4], the target named is T2, 5-hydroxytryptamine receptor 3A (Rattus norvegicus, UniProt P35563).
T2 sequence (P35563 whole entry): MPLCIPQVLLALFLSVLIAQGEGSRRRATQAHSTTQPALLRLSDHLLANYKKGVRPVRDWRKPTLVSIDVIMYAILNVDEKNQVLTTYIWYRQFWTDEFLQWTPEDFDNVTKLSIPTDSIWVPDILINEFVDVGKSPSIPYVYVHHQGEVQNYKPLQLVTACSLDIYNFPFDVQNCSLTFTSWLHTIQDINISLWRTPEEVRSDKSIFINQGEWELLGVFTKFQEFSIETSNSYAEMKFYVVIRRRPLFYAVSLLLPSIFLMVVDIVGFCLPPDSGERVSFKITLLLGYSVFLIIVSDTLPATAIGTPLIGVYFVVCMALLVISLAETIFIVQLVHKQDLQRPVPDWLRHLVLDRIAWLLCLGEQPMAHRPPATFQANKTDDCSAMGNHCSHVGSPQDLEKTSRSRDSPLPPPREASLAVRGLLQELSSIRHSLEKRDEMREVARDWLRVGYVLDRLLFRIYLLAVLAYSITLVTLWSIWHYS

Experiment [5] addresses 5-hydroxytryptamine receptor 2A (Rattus norvegicus, UniProt P14842).

For orientation: Ki means the equilibrium dissociation constant of an inhibitor or competing ligand from its target.

5-hydroxytryptamine receptor 5A, sequence (P47898 whole entry): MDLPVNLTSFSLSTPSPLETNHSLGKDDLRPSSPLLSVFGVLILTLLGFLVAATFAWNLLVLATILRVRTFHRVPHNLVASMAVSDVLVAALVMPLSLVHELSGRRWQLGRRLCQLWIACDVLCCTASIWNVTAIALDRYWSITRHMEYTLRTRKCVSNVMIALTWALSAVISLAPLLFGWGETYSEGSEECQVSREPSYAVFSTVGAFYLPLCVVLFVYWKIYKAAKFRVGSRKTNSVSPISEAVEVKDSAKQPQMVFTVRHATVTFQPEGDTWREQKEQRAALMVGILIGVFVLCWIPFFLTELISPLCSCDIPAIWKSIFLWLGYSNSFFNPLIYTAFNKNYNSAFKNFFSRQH
5-hydroxytryptamine receptor 2A, sequence (P14842 whole entry): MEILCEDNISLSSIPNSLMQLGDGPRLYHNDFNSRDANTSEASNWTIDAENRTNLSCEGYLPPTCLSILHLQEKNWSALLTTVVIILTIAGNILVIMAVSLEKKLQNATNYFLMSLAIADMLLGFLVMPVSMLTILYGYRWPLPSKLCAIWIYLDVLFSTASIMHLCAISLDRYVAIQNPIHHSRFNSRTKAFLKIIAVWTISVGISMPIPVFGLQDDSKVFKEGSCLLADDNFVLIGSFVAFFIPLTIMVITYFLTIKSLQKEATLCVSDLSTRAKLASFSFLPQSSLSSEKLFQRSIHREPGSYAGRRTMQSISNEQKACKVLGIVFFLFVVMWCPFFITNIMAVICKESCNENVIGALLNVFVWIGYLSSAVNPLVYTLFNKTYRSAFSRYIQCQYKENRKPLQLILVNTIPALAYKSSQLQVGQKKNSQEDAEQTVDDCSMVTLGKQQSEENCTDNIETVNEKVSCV
5-hydroxytryptamine receptor 4, sequence (O70528 whole entry): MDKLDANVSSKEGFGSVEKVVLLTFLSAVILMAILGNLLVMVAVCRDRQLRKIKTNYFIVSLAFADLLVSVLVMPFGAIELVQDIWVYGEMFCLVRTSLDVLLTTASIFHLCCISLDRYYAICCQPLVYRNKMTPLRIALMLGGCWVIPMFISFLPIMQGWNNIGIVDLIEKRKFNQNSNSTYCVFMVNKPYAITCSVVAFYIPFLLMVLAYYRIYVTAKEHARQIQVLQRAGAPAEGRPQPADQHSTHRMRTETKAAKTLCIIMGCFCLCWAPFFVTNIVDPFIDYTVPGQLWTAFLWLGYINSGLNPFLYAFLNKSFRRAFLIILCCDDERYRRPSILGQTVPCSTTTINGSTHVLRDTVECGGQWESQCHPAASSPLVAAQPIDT

Regarding `COc1ccc(NC(=O)c2ccc(-c3ccc(-c4noc(C)n4)cc3C)cc2)cc1N1CCN(C)CC1` [SMR001230745], the Ki in experiment [1] was above 10 µM; in experiment [2] it was 631 nM; in experiment [3], 6.31 µM; in experiment [4], 6.31 µM; in experiment [5] it was 39.8 nM.
